Reference: patent US20240132513A1, “BENZAZEPINE DERIVATIVES, COMPOSITIONS, AND METHODS FOR TREATING COGNITIVE IMPAIRMENT” (AGENEBIO, INC., priority 2022, published 2024)
Like-named read-outs stand apart in the source and are kept apart here.

Legend:
[1] = biological target: T1, GABAA R (α5β2γ2) (Homo sapiens, UniProt P18507+P31644); assay: Positive allosteric modulator activity: potentiation of EC20 GABA current in oocytes; type: cell-based
T1 construct: expressed in transfected cells
Method: On day 1, 1 ng/32 nL of GABAA α5β2γ2 cDNA was injected into one oocyte. Test starts on day 2. The cDNA injected to the oocytes was a mix of alpha, beta and gamma, their ratio is 1:1:10 (by weight) and the total weight of the mixed 3 subunits to be injected in one oocyte was 1 ng in 32 nl volume. The injected oocytes can also be tested on day 3. In such case, the cDNA amount injected to the oocytes should be reduced by 20%.
Compounds of the present disclosure were tested using the following procedures.
8 oocytes were placed in 8 chambers of OpusXpress and superfused with Modified Barth's Saline (MBS) at 3 mL/min. Glass electrodes back-filled with 3M KCl (0.5-3 megaohms) were used. Membrane potential of oocytes was voltage-clamped at −60 mV. • 2).
Control Test (Diazepam or Methyl 3,5-Diphenylpyridazine-4-Carboxylate) • 1). New oocytes was used to run new test. • 2). […] Oocytes were washed with MBS for 5-10 min. • 4). […] Itest was divided by IGABA to obtain potentiation (%).
Test Compounds at Multiple Doses • 1). Repeat the above steps 1), 2) and 3) in the control test. • 2). […] Divide Itest by IGABA to obtain potentiation (%). • 3). Discard all tested oocytes, new oocytes were used and the above steps 1) and 2) were repeated to test second concentration of the same compound. Each oocyte was used for only one concentration test for a single test compound. The steps were repeated for other test compounds.

[2] = biological target: α5β3γ2 GABAA R (Homo sapiens, UniProt P18507+P31644); assay: Binding activity on GABAA R: inhibition of [3H]Ro15-1788 binding, α5 containing receptor
α5β3γ2 GABAA R, sequence (P31644 32-462): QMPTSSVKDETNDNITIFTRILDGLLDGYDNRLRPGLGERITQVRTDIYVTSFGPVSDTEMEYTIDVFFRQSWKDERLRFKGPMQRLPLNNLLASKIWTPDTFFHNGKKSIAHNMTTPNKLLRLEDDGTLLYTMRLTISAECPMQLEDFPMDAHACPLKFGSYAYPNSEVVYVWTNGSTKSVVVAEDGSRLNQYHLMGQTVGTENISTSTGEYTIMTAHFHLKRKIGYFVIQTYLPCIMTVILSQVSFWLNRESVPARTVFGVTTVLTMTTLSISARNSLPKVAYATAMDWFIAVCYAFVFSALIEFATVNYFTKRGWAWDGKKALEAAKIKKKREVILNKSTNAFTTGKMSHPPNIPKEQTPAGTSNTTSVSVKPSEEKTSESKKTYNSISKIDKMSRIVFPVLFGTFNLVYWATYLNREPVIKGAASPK
α5β3γ2 GABAA R, sequence (P28472 26-473 partner): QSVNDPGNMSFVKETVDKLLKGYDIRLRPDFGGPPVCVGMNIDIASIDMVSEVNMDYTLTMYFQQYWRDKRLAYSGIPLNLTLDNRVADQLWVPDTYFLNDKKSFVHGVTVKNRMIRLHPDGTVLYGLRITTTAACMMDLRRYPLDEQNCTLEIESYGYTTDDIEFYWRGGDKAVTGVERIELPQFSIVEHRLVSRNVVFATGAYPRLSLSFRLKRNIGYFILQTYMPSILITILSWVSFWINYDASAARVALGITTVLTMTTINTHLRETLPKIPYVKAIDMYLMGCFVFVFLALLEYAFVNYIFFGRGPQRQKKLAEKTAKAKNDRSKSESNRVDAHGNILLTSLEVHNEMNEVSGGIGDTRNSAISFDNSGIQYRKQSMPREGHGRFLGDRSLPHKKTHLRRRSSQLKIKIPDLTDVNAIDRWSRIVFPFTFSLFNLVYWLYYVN
α5β3γ2 GABAA R, sequence (P18507 40-475): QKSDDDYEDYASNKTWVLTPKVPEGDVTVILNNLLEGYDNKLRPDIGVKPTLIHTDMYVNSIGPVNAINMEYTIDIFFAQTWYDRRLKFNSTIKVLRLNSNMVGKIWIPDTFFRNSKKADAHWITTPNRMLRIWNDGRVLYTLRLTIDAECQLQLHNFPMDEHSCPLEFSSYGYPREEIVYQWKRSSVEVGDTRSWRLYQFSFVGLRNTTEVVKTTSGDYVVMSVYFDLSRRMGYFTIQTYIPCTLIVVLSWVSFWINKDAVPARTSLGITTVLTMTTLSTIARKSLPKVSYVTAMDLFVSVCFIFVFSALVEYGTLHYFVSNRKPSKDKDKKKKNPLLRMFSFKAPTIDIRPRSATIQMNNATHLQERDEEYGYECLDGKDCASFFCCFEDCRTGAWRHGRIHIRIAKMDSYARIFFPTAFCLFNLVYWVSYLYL
How it was run: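 Displacement of [3H]Ro15-1788 (flumazenil) measured at 4 °C over 1 h using 0.2 mg/ml membrane protein from Ltk cells carrying α5β3γ2 GABAA receptors, expression induced with 0.5 μM dexamethasone for 1 day; buffer pH 7.4 KH2PO4/EDTA/KCl. 10 μM diazepam defined nonspecific binding; filter-trapped radioactivity counted, in triplicate.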

[3] = read-out: GABA α5 Functional Data: potentiation, @ 100 nM, EC20 GABA, ranges of the column heads
[4] = read-out: GABA α5 Functional Data: potentiation
[5] = ranges of the column heads, [3H]Ro15-1788, Ltk cell membranes

T1 sequence (P31644 32-462): as the sequence (P31644 32-462) above
T1 sequence (P47870 25-512 partner limits assumed): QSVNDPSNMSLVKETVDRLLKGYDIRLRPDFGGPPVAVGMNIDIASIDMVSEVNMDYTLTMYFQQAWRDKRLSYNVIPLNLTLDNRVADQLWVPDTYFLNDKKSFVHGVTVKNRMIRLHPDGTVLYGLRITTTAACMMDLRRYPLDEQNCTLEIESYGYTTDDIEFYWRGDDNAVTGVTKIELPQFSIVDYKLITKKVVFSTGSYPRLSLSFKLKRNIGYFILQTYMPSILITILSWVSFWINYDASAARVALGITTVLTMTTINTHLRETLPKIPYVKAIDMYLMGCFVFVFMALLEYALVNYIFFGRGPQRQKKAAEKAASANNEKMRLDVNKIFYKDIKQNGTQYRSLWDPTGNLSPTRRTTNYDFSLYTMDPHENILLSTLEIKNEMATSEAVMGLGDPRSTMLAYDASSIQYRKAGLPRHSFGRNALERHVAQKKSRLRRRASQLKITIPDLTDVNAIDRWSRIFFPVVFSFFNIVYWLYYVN
T1 sequence (P18507 40-475): as the sequence (P18507 40-475) above

Compound	activation at 0.1 µM [1, 3] [%]	Ki [2] [nM]	activation at 0.1 µM [1, 4] [%]	Ki [2, 5] [nM]
COc1ccc2c(c1)-c1nn(C)cc1Cc1c(-c3noc(C4CCOC4)n3)ncn1-2 (stereo not drawn) [Compound 136]	20 to 50	< 100		
COc1ccc2c(c1)-c1[nH]ncc1Cc1c(-c3noc(C4COCCO4)n3)ncn1-2 (stereo not drawn) [Compound 187]	20 to 50	< 100		
Cn1cc2c(n1)-c1cc(Cl)ccc1-n1cnc(-c3noc(C4CC4)n3)c1C2 [Compound 142]	20 to 50	< 100		
Clc1ccc2c(c1)-c1nn(CC3COC3)cc1Cc1c(-c3nc(C4CC4)no3)ncn1-2 [Compound 224]	20 to 50	< 100		
CCn1cc2c(n1)-c1cc(Cl)ccc1-n1cnc(C3=N[C@H](C(C)C)CO3)c1C2 [Compound 177]	5 to 20	< 100		
Cn1cc2c(n1)-c1cc(Cl)ccc1-n1cnc(-c3noc(COC(C)(C)C)n3)c1C2 [Compound 215]	20 to 50	< 100		
COc1ccc2c(c1)-c1[nH]ncc1Cc1c(-c3nc(C4CCOC4)no3)ncn1-2 (stereo not drawn) [Compound 100]	5 to 20	< 100		
COc1ccc2c(c1)-c1nn(C)cc1Cc1c(-c3nc(C4CCOCC4)no3)ncn1-2 [Compound 220]	20 to 50	< 100		
COc1ccc2c(c1)-c1nn(C)cc1Cc1c(-c3noc(COC(C)(C)C)n3)ncn1-2 [Compound 296]	20 to 50	< 100		
Cc1noc(-c2ncn3c2Cc2cn(CC4CCOC4)nc2-c2cc(Cl)ccc2-3)n1 (stereo not drawn) [Compound 161]	20 to 50	< 100		
COc1ccc2c(c1)-c1nn(CC3CC3)cc1Cc1c(-c3nc(C(F)(F)F)no3)ncn1-2 [Compound 116]	5 to 20	< 100		
FC(F)(F)c1noc(-c2ncn3c2Cc2cn(C4CCOC4)nc2-c2cc(Cl)ccc2-3)n1 (stereo not drawn) [Compound 228]	5 to 20	< 100		
COc1ccc2c(c1)-c1nn(C)cc1Cc1c(-c3nnc(C(F)(F)F)o3)ncn1-2 [Compound 289]	5 to 20	< 100		
Cn1cc2c(n1)-c1cc(Cl)ccc1-n1cnc(-c3nc(C4CC4)no3)c1C2 [Compound 127]	20 to 50	< 100		
CC(C)c1noc(-c2ncn3c2Cc2cn(Cc4cccnc4)nc2-c2cc(Cl)ccc2-3)n1 [Compound 98]			5 to 20	< 100
COc1ccc2c(c1)-c1nn(CC3CCCO3)cc1Cc1c(-c3noc(C(C)(C)OC)n3)ncn1-2 (stereo not drawn) [Compound 283]	> 50	< 100		
COc1ccc2c(c1)-c1nn(CC3CCOC3)cc1Cc1c(-c3nc(C(C)C)no3)ncn1-2 (stereo not drawn) [Compound 245]	20 to 50	< 100		
CC(C)c1noc(-c2ncn3c2Cc2cn(CC4CCOC4)nc2-c2cc(Cl)ccc2-3)n1 (stereo not drawn) [Compound 201]	5 to 20	< 100		
CCn1cc2c(n1)-c1cc(OC)ccc1-n1cnc(-c3noc(C4CC4)n3)c1C2 [Compound 157]	20 to 50	< 100		

Compound	activation at 0.1 µM [1, 3] [%]	Ki [2] [nM]	activation at 0.1 µM [1, 4] [%]	Ki [2, 5] [nM]
COc1ccc2c(c1)-c1nn(C)cc1Cc1c(-c3noc(C4(OC)CC4)n3)ncn1-2 [Compound 203]	20 to 50	< 100		
Clc1ccc2c(c1)-c1nn(CC3CC3)cc1Cc1c(-c3ncco3)ncn1-2 [Compound 172]			5 to 20	< 100
CC(C)n1cc2c(n1)-c1cc(Cl)ccc1-n1cnc(-c3ncco3)c1C2 [Compound 167]	5 to 20	< 100		
COCc1noc(-c2ncn3c2Cc2cn(C)nc2-c2cc(OC)ccc2-3)n1 [Compound 170]	20 to 50	< 100		
CCn1cc2c(n1)-c1cc(OC)ccc1-n1cnc(-c3nc(CN4CCCC4)no3)c1C2 [Compound 267]	5 to 20	< 100		
COc1ccc2c(c1)-c1nn(C3CCOC3)cc1Cc1c(-c3noc(COCC(F)(F)F)n3)ncn1-2 (stereo not drawn) [Compound 279]	20 to 50	< 100		
COc1ccc2c(c1)-c1nn(Cc3ccccc3)cc1Cc1c(-c3nc(C(C)C)no3)ncn1-2 [Compound 44]	20 to 50	< 100		
COc1ccc2c(c1)-c1nn(CC3CCCO3)cc1Cc1c(-c3nnc(COCC(F)(F)F)o3)ncn1-2 (stereo not drawn) [Compound 303]	20 to 50	< 100		
Clc1ccc2c(c1)-c1[nH]ncc1Cc1c(C#Cc3ccccn3)ncn1-2 [Compound 94]			20 to 50	< 100
COc1ccc2c(c1)-c1nn(C)cc1Cc1c(-c3cnn(Cc4ccccn4)c3)ncn1-2 [Compound 282]	5 to 20	< 100		
Cn1cc2c(n1)-c1cc(Cl)ccc1-n1cnc(-c3cnn(Cc4cccnc4)c3)c1C2 [Compound 208]	5 to 20	< 100		
Cn1cc2c(n1)-c1cc(Cl)ccc1-n1cnc(-c3cnn(Cc4ccccc4)c3)c1C2 [Compound 163]	5 to 20	< 100		
COc1ccc2c(c1)-c1nn(C)cc1Cc1c(-c3nc(C(C)C)no3)ncn1-2 [Compound 46]	5 to 20	< 100		
COc1ccc2c(c1)-c1nn(CC3COC3)cc1Cc1c(-c3noc(COCC(F)(F)F)n3)ncn1-2 [Compound 314]	5 to 20	< 100		
COc1ccc2c(c1)-c1[nH]ncc1Cc1c(-c3noc(C)n3)ncn1-2 [Compound 88]	5 to 20	< 100		
Cn1cc2c(n1)-c1cc(Cl)ccc1-n1cnc(C#CC(C)(C)C)c1C2 [Compound 101]	20 to 50	< 100		
CN(C)Cc1coc(-c2ncn3c2Cc2cn(C)nc2-c2cc(Cl)ccc2-3)n1 [Compound 277]	20 to 50	< 100		
CC(C)(C)C#Cc1ncn2c1Cc1cn[nH]c1-c1cc(Cl)ccc1-2 [Compound 63]			20 to 50	< 100
COc1ccc2c(c1)-c1nn(C)cc1Cc1c(-c3noc(COCC(F)(F)F)n3)ncn1-2 [Compound 183]	> 50	< 100		

Compound	activation at 0.1 µM [1, 3] [%]	Ki [2] [nM]	activation at 0.1 µM [1, 4] [%]	Ki [2, 5] [nM]
CCn1cc2c(n1)-c1cc(Cl)ccc1-n1cnc(-c3noc(COC(C)(C)C)n3)c1C2 [Compound 197]	5 to 20	< 100		
COc1ccc2c(c1)-c1[nH]ncc1Cc1c(-c3nc(C(C)C)no3)ncn1-2 [Compound 10]	20 to 50	< 100		
Cn1cc2c(n1)-c1cc(Cl)ccc1-n1cnc(-c3nc([C@H]4CCOC4)no3)c1C2 [Compound 253]	5 to 20	< 100		
CCn1cc2c(n1)-c1cc(Cl)ccc1-n1cnc(-c3nc(C4CC4)no3)c1C2 [Compound 133]			20 to 50	< 100
CCn1cc2c(n1)-c1cc(Cl)ccc1-n1cnc(-c3noc(CN(C)C)n3)c1C2 [Compound 349]		< 100		
COc1ccc2c(c1)-c1nn(C)cc1Cc1c(-c3noc(C4(O)CCCC4)n3)ncn1-2 [Compound 384]		< 100		
COc1ccc2c(c1)-c1nn(C)cc1Cc1c(-c3noc(CN4CCCC4=O)n3)ncn1-2 [Compound 368]		100 to 1000		
COC(C)(C)c1noc(-c2ncn3c2Cc2cn(CC4CCOC4)nc2-c2cc(Cl)ccc2-3)n1 (stereo not drawn) [Compound 367]		< 100		
CCOC1(c2nc(-c3ncn4c3Cc3cn(C)nc3-c3cc(OC)ccc3-4)no2)CC1 [Compound 357]		< 100		
COc1ccc2c(c1)-c1nn(C)cc1Cc1c(-c3nnc(C4COCCO4)o3)ncn1-2 (stereo not drawn) [Compound 325]		< 100		
COc1ccc2c(c1)-c1nn(C)cc1Cc1c(-c3noc(Cn4cccc4)n3)ncn1-2 [Compound 360]		< 100		
Cc1noc(-c2ncn3c2Cc2cnn(Cc4ccccc4)c2-c2cc(Cl)ccc2-3)n1 [Compound 1]		< 100		
COc1ccc2c(c1)-c1nn(Cc3ccccc3F)cc1Cc1c(-c3nc(C(C)C)no3)ncn1-2 [Compound 43]		< 100		
Clc1ccc2c(c1)-c1c(cnn1Cc1ccccc1)Cc1c(C3=N[C@@H](c4ccccc4)CO3)ncn1-2 [Compound 6]				> 1000
COc1ccc2c(c1)-c1oncc1Cc1c(C3=N[C@@H](c4ccc(C(F)(F)F)cc4)CO3)ncn1-2 [Compound 50]				> 1000
COc1ccc2c(c1)-c1nn(C)cc1Cc1c(-c3noc(C(C)(C)O)n3)ncn1-2 [Compound 388]		< 100		
Cn1cc2c(n1)-c1cc(Cl)ccc1-n1cnc(-c3cnn(C4CCCO4)c3)c1C2 (stereo not drawn) [Compound 221]		100 to 1000		
Clc1ccc2c(c1)-c1nn(C3CCOC3)cc1Cc1c(-c3cnn(Cc4ccccc4)c3)ncn1-2 (stereo not drawn) [Compound 274]				< 100
COc1ccc2c(c1)-c1oncc1Cc1c(-c3nc(C(C)C)no3)ncn1-2 [Compound 41]				> 1000
